Like-named read-outs stand apart in the source and are kept apart here.
Target: T1, human calpain 1 protease (HCAN1) (Homo sapiens, UniProt P07384)
T1 construct: gene CAPN1; with Calpain small subunit 1
T1 sequence (P07384 2-714): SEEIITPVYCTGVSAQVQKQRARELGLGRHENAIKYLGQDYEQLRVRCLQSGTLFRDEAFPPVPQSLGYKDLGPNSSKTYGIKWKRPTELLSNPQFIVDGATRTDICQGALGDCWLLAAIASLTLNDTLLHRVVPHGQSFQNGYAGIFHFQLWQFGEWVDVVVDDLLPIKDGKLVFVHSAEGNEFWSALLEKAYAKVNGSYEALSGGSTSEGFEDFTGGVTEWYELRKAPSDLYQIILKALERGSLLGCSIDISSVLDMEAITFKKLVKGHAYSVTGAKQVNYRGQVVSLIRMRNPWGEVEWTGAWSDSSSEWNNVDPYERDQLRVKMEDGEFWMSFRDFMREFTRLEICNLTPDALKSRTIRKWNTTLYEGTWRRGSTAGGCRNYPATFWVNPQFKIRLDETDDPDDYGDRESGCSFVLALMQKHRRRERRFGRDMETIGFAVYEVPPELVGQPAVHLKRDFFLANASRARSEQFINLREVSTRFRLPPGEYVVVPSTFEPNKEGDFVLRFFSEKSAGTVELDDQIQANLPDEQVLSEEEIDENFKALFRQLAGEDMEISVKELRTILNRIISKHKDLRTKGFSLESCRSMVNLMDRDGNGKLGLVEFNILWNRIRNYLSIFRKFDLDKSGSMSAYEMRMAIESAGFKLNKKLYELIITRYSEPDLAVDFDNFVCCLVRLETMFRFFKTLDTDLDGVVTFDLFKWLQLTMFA
T1 sequence (P04632 1-268 partner): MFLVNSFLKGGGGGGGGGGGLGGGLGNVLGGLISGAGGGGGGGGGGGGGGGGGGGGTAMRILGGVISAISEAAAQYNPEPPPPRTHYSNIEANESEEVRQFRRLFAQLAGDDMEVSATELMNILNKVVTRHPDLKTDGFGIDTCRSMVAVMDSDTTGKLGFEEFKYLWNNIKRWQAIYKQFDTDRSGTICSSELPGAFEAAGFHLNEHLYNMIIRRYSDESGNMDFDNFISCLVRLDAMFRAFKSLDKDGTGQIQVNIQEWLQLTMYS
Assay: fluorescence calpain activity assay kit (Ac-LLY-AFC)
Type: biochemical

Molecule | IC50 [nM] | IC50 (Ac-LLY-AFC substrate, 37 °C, 1 h, covalent (Michael addition to Cys115)) [nM]
CCCCCCCCCC(=O)N[C@@H](CO)C(=O)N[C@H](C(=O)N[C@@H](CO)[C@@H](O)CC(=O)N[C@H](C(=O)N[C@@H]1CCC(=O)N[C@@H](C(C)C)C(=O)N(C)[C@@H](Cc2ccc(O)cc2)C(=O)OC1)C(C)C)C(C)C [compound 3, 3] | > 5000 | –
Thalassospiramide C [compound 4] | – | 3.4 ± 1.2
